From the supplement of paper PMC11061612 come the findings set out here.

Assay [1] has as its system EJM (Plasma Cell Myeloma). Put plainly: Bliss excess, mean over the matrix (fraction); higher = more synergy. In outline: (§1)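 Cell lines in DMEM/F12 or RPMI with 10% FBS were plated in 1536-well plates, held 24 hours at 37°C, 5% CO2, then given two-drug dose matrices for 72 hours (DMSO typically 0.2%). Viability was read by CellTiter-Glo 2.0 luminescence and scaled as inhibition from 0 (vehicle wells) to 1 (blank wells). Combination Emax is the second-highest inhibition in the matrix; Bliss excess is observed combination effect minus expected EA + EB − EA·EB, EA and EB being single-agent effects.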

Assay [2] concerns NCI-H2122 (Lung Adenocarcinoma). The assay is described as above. In a few lines:
as §1

Assay [3] concerns A4-Fuk (B-Lymphoblastic Leukemia). Put plainly: combination Emax (second highest fraction inhibited in the dose matrix, 72 h); higher = more inhibition; extreme values may be limits of the assay. In outline:
as §1

The subject of another assay is COLO-679 (Melanoma). The description is as above. In a few lines:
as §1

The subject of a further assay is EW-1 (Ewing's Sarcoma). The assay is described as above. In outline: as §1
Assay [4] deals with HAL-01 (B-Lymphoblastic Leukemia). The assay is described as above. In a few lines:
as §1

In assay [5] the test system is HCC1937 (Breast Carcinoma). The description is as above. In outline: as §1
The test system of assay [6] is KGN (Other Solid Carcinomas). The assay is described as above. In outline: as §1
The test system of assay [7] is KOPN-8 (B-Lymphoblastic Leukemia). Described as above. In outline: as §1
The test system of assay [8] is MDA-MB-453 (Breast Carcinoma). The assay is described as above. In a few lines: as §1
Assay [9] relates to ME-180 (Cervical Carcinoma). The assay is described as above. In a few lines: as §1
The test system of assay [10] is MOLT-4 (T-Lymphoblastic Leukemia). The assay is described as above. In outline: as §1
Assay [11] concerns MV-4-11 (Acute Myeloid Leukemia). The description is as above. In a few lines:
as §1

Assay [12] deals with NCI-H1092 (Small Cell Lung Carcinoma). Described as above. In a few lines:
as §1

Assay [13] relates to NCI-H1838 (Lung Adenocarcinoma). The description is as above. In a few lines: as §1
Assay [14] deals with NCI-H2122 (Lung Adenocarcinoma). Described as above. In outline: as §1
The test system of assay [15] is OACM5-1 (Esophageal Adenocarcinoma). The description is as above. In a few lines: as §1
Assay [16] deals with SNU-387 (Hepatocellular Carcinoma). The description is as above. In outline: as §1
Assay [17] deals with SW872 (Other Solid Carcinomas). The assay is described as above. In a few lines: as §1

Molecules are shown by their SMILES.
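Wherever Bliss excess, mean over the matrix is given: after 72 h of two-drug dosing.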

Turning to `CC1(C)CCC(CN2CCN(c3ccc(C(=O)NS(=O)(=O)c4ccc(NCC5CCOCC5)c([N+](=O)[O-])c4)c(Oc4cnc5[nH]ccc5c4)c3)CC2)=C(c2ccc(Cl)cc2)C1` [Venetoclax] + CN(C)CCCOc1ccc(-c2ccc3ncc4c(c3c2)n(C2CCOCC2)c(=O)n4C)cn1 [AZD0156] (first compound max 1 µM, 7x7, partner max 1 µM), the Bliss excess was -0.0047 in [1] and 0.0112 in [2]. For the same compound, the “combination Emax” value in assay [3] was 0.659; with COLO-679 (Melanoma), 0.107; with EW-1 (Ewing's Sarcoma), 0.179; in assay [4], 0.936; in [5] it was 0.283; in assay [6] it was 0.488. For the same compound, the “combination Emax” value in assay [7] is 0.813; in assay [8], 0.169; in assay [9] it was 0.211; in assay [10] it was 0.741; in assay [11] it was 1; in assay [12], 0.252. In addition, the “combination Emax” value in [13] is 0.303; in assay [14], 0.212; in assay [15], 0.262; in [16] it was 0.201; in assay [17] it was 0.172.
For `CC1(C)CCC(CN2CCN(c3ccc(C(=O)NS(=O)(=O)c4ccc(NCC5CCOCC5)c([N+](=O)[O-])c4)c(Oc4cnc5[nH]ccc5c4)c3)CC2)=C(c2ccc(Cl)cc2)C1` [Venetoclax] + COc1cc(Nc2ncc3c(n2)-c2ccc(Cl)cc2C(c2c(F)cccc2OC)=NC3)ccc1C(=O)O [Alisertib] (first compound max 1 µM, 7x7, partner max 10 µM), the Bliss excess in assay [1] was -0.0024; in [2], -0.0572. In addition, the “combination Emax” value in assay [3] was 0.822; in the assay on COLO-679 (Melanoma) it was 0.282; in the assay with EW-1 (Ewing's Sarcoma) it was 0.628; in assay [4] it was 1; in assay [5], 0.387; in [6], 0.685. The “combination Emax” value is 1 in [7]; 0.314 in assay [8]; 0.603 in assay [9]; 0.959 in [10]; 1 in [11]; 0.684 in assay [12]. The “combination Emax” value was found to be 0.437 in [13]; 0.939 in [14]; 0.663 in assay [15]; 0.191 in [16]; 0.265 in assay [17].
Turning to `CC1(C)CCC(CN2CCN(c3ccc(C(=O)NS(=O)(=O)c4ccc(NCC5CCOCC5)c([N+](=O)[O-])c4)c(Oc4cnc5[nH]ccc5c4)c3)CC2)=C(c2ccc(Cl)cc2)C1` [Venetoclax] + C[C@@H]1COCCN1C2=NC(=NC(=C2)C3(CC3)[S@](=N)(=O)C)C4=C5C=CNC5=NC=C4 [AZD6738] (first compound max 1 µM, 7x7, partner max 10 µM), the Bliss excess is -0.0176 in assay [1] and -0.0137 in [2]. In addition, the “combination Emax” value in assay [3] was 0.775; in the assay with COLO-679 (Melanoma), 0.639; in the assay with EW-1 (Ewing's Sarcoma), 0.944; in assay [4], 1; in assay [5], 0.587; in [6], 0.751. Besides, the “combination Emax” value in [7] turned out to be 1; in [8], 0.761; in assay [9], 0.571; in assay [10], 1; in assay [11], 1; in assay [12], 0.458. In addition, the “combination Emax” value was 0.6 in assay [13]; 0.947 in [14]; 0.678 in [15]; 0.588 in assay [16]; 0.459 in assay [17].
For `CC1(C)CCC(CN2CCN(c3ccc(C(=O)NS(=O)(=O)c4ccc(NCC5CCOCC5)c([N+](=O)[O-])c4)c(Oc4cnc5[nH]ccc5c4)c3)CC2)=C(c2ccc(Cl)cc2)C1` [Venetoclax] + C[C@@H](Nc1cc(F)cc(F)c1)c1cc(C(=O)N(C)C)cc2c(=O)cc(N3CCOCC3)oc12 [AZD8186] (first compound max 1 µM, 7x7, partner max 3 µM), the Bliss excess in assay [1] is 0.0077; in assay [2] it was 0.0055. The “combination Emax” value in [3] amounted to 0.655; in the assay with COLO-679 (Melanoma) it was 0.273; with EW-1 (Ewing's Sarcoma) it was 0.303; in [4] it was 0.988; in [5], 0.271; in [6], 0.333. In addition, the “combination Emax” value amounted to 0.829 in [7]; 0.703 in [8]; 0.129 in assay [9]; 0.422 in assay [10]; 1 in [11]; 0.384 in [12]. Moreover, the “combination Emax” value in assay [13] was determined as 0.0996; in assay [14], 0.174; in assay [15], 0.495; in assay [16], 0.21; in assay [17], 0.167.
On to `CC1(C)CCC(CN2CCN(c3ccc(C(=O)NS(=O)(=O)c4ccc(NCC5CCOCC5)c([N+](=O)[O-])c4)c(Oc4cnc5[nH]ccc5c4)c3)CC2)=C(c2ccc(Cl)cc2)C1` [Venetoclax] + Cc1cc2ncnn2cc1Nc1ncc2c(n1)n(C1CCOCC1)c(=O)n2C [AZD7648] (first compound max 1 µM, 7x7, partner max 10 µM), for which the Bliss excess in assay [1] was determined as 0.0292; in assay [2], 0.0311. For the same compound, the “combination Emax” value in assay [3] was 0.667; in the assay with COLO-679 (Melanoma) it was 0.133; in the assay on EW-1 (Ewing's Sarcoma) it was 0.418; in [4] it was 0.881; in [5], 0.244; in [6], 0.471. Moreover, the “combination Emax” value in [7] turned out to be 0.739; in assay [8], 0.198; in [9], 0.268; in assay [10] it was 0.445; in assay [11], 1; in assay [12], 0.317. The “combination Emax” value came to 0.344 in assay [13]; 0.284 in assay [14]; 0.495 in assay [15]; 0.167 in assay [16]; 0.158 in assay [17].
Regarding `CC1(C)CCC(CN2CCN(c3ccc(C(=O)NS(=O)(=O)c4ccc(NCC5CCOCC5)c([N+](=O)[O-])c4)c(Oc4cnc5[nH]ccc5c4)c3)CC2)=C(c2ccc(Cl)cc2)C1` [Venetoclax] + Cn1cnc2c(F)c(Nc3ccc(Br)cc3Cl)c(C(=O)NOCCO)cc21 [Selumetinib] (first compound max 1 µM, 7x7, partner max 3 µM), the Bliss excess in [1] was -0.006; in assay [2], 0.0375. Further, the “combination Emax” value in assay [3] is 0.712; in the assay with COLO-679 (Melanoma), 0.737; in the assay on EW-1 (Ewing's Sarcoma), 0.238; in [4] it was 0.97; in [5], 0.264; in assay [6] it was 0.246. Moreover, the “combination Emax” value is 0.971 in [7]; 0.15 in assay [8]; 0.256 in assay [9]; 0.451 in assay [10]; 1 in [11]; 0.253 in assay [12]. The “combination Emax” value in assay [13] turned out to be 0.165; in [14], 0.679; in assay [15] it was 0.336; in [16], 0.295; in assay [17], 0.105.
